Results from paper PMC5072831, “Novel Nuclear Factor-KappaB Targeting Peptide Suppresses β-Amyloid Induced Inflammatory and Apoptotic Responses in Neuronal Cells” (PLoS ONE, 2016).

Key:
NF-κΒ p65 = conditions: ref [61]; cited from earlier work
Source text: There is increasing interest in developing disease modifying agents for neurodegenerative diseases based on molecular pathogenesis. […] As opposed to high throughput screening, computational design of interface peptide mimics followed by functional evaluation represe ...

caspase-3 = conditions: ref [70], [71]; cited from earlier work
Source text: Multiple caspases including caspase-3 and caspase-9 are transcriptionally elevated in AD [66, 67].

[1] = system: activated p65 NF-κΒ subunit; test: NF-κB assay, nuclear p65 DNA binding (TransAM) in HFB; format: cell-based, human; conditions: HFB exposed to Aβ1–42, 4 h, 5μg nuclear extract, TransAM ELISA; average+/-SD from two experiments
Experimental: (§1) Primary HFB exposed to Aβ1–42 and treated with GA or CP as above was harvested at the end of 4h. Nuclear and cytoplasmic fractions were extracted using the CelLytic™ NuCLEAR™ Extraction Kit (Sigma) following manufacturer’s protocol. Five microgram of nuclear extracts was incubated in a 96-well plate coated with oligonucleotides containing the NF-κΒ consensus nucleotide sequence (5’-[…]-3’). The activated NF-κΒ bound to DNA was detected by anti-p65 antibody followed by a peroxidase coupled secondary antibody and substrate using the TransAM kit protocol (Active Motif). Nuclear extracts of Raji cells was used as the positive control.
Fig 6 Effect of GILZ analog (GA) treatment on human fetal brain cells (HFB): (A,B): Select GA decrease metabolic activity in Aβ1–42 exposed HFB. […] Cytoplasmic extracts of cells collected at 24h was assessed for viability by CTG assay. […] HFB cells were cultured as above and culture medium collected at 24hrs was assessed for pro-inflammatory (IL-1β, IL-6 and IL-17) (C, D, E and F) and anti-inflammatory (TGF-β) (G) cytokines. […] The p65 DNA binding activity was calculated as the ratio of absorbance from Aβ1–42 stimulated cells to that of unstimulated cells. […]
We measured nuclear p65 using activated NF-κΒ specific ELISA and calculated the p65 DNA binding activity as the ratio of absorbance form Aβ1–42 stimulated cells to that of unstimulated cells. […]

nuclear p50 = test: Nuclear p50 in HFB; format: cell-based, human; conditions: HFB exposed to Aβ1–42
Experimental: as §1
We measured nuclear p65 using activated NF-κΒ specific ELISA and calculated the p65 DNA binding activity as the ratio of absorbance form Aβ1–42 stimulated cells to that of unstimulated cells. […] There was a trend towards decreased nuclear p65 in Aβ1–42 exposed cells treated with GA-1 (6.13+/-1.3) and GA-2 (6.7+/-1.5) as compared to untreated cells (14.75+/-3.5). Nuclear p65 of Aβ1–42 exposed cells treated with CP-1, CP-2 and CP-3 measured 6.8+/-3.9, 10.2+/-2.9 and 10.1+/-3.7 respectively (Fig 6H). […] Although we observed slightly elevated nuclear p50 in Aβ1–42 (6.15+/-1.2) than in unexposed cells (0.5+/-2.7), no difference was observed between GA peptide of CP treated cells and untreated cells (data not shown).

[2] = system: human fetal brain cells (HFB); test: CTG viability in human primary mixed brain cultures (HFB); format: cell-based
Experimental: HFB were prepared and cultured as described (S1 and S2 Docs). Briefly, cells were cultured in Neurobasal medium (Invitrogen) without phenol red supplemented with 1xB27, […], 1xantibiotic cocktail, 5ng/mL recombinant fibroblast growth factor 2 (bFGF) (Invitrogen), and 2μL/mL Normocin (InVivoGen, San Diego, CA, USA). Cells were counted and seeded onto poly-D-lysine (Sigma-Aldrich) coated 24-well plates (Corning, Lowell, MA, USA) at 1.5x10^5 cells per well and maintained at 37°C in a 5% CO2 incubator. Half media changes were performed every 4th day of culture and morphology was monitored via phase contrast microscopy. Culture medium was removed from cells on day 17 (DIV17) and replaced with Neurobasal medium with B27. […] Cells and conditioned media were harvested and stored for further analysis. Relative ATP concentration was measured using the CTG kit (Promega). Data is presented as ΔRLU = RLU of Aβ1–42 exposed cells–RLU unexposed cells. Conditioned media collected were assessed for specific cytokines using the OptEIA kits (BD Biosciences).

IL-1β mRNA = IL-1β mRNA in HFB by quantitative real-time PCR; format: cell-based, human; conditions: Aβ1–42 exposure alone
Experimental: (§2) Primary HFB exposed to Aβ1–42 and treated with GA or CP as above was harvested at the end of 24h. Total cellular RNA was isolated using Qiagen kit (Invitrogen, Carlsbad, CA) following manufacturer's protocol. Total RNA (2–4 μg) was reverse transcribed using iScript cDNA synthesis kit (Biorad, CA). The concentration of the cDNA was measured at 260 and 280 nm by the Gensys5 model UV-visible spectrophotometer (Thermoelectronic Corp.,CA). Real-time PCR was performed by using the SYBR green/ROX qPCR master mix (SABiosciences, Frederick, MD) according to manufacturer's recommendations on the CFX96 Touch™ Real-Time PCR Detection System (Biorad laboratories, Hercules, California, USA). Each reaction contains 2×12.5 μl of SYBR green Master Mix, 1 μl of 10 μM of primers and 50 ng of the cDNA, to a total volume of 25 μl. The thermal cycling conditions included an initial denaturation step at 50°C for 2 min, 95°C for 3 min, 39 cycles at 95°C for 30 s, annealing temperature at 54°C for 30 s and extension at 72°C for 30s. The primers are F-GAPDH-5′-[…]-3′; R-GAPDH:5′-G […]-3′(102bp); F-IL-1β:5′-[…]-3′; R-IL-1β:5′[…]-3′ (89 bp); F-IL-6:5′-[…] […] The difference in each gene-specific threshold between the samples from vehicle treated and GA or CP treated cells was determined to obtain the relative change in the specific mRNA. The magnitude of change in the mRNA was expressed as 2^ΔΔCt. […]

Caspase-3 mRNA = Caspase-3 mRNA in HFB by quantitative real-time PCR; format: cell-based, human; conditions: Aβ1–42 exposure alone
Experimental: as §2

Caspase-9 mRNA = Caspase-9 mRNA in HFB by quantitative real-time PCR; format: cell-based, human; conditions: Aβ1–42 exposure alone
Experimental: as §2

IL-6 mRNA = IL-6 mRNA in HFB by quantitative real-time PCR; format: cell-based, human; conditions: Aβ1–42 exposure alone
Experimental: as §2

[3] = ref [67]; cited from earlier work

C=C1C(=O)[C@]23C[C@H]1C[C@H](OC(C)=O)[C@H]2[C@]1(C)[C@@H](OC(C)=O)C[C@H](O)C(C)(C)[C@H]1C(=O)[C@@H]3OC(C)=O [adenanthin]
effect in AD models (NF-κΒ p65): interact with NF-κΒ p65, suppress inflammation and cytotoxicity in AD models

COc1ccc2[nH]cc(CCNC(C)=O)c2c1 [melatonin]
effect on Aβ-induced caspase-3 activity (caspase-3): suppress Aβ-induced caspase-3 activity

Oc1ccc(/C=C/c2cc(O)cc(O)c2)cc1 [resveratrol]
effect in AD models (NF-κΒ p65): interact with NF-κΒ p65, suppress inflammation and cytotoxicity in AD models

Aβ1–42: Purified Aβ1–42 peptide (American Peptide company), used as stimulus
nuclear p65 DNA binding activity (ratio of absorbance, Aβ1–42 stimulated / unstimulated) [1]: 14.75+/-3.5 | nuclear p50 (nuclear p50): 6.15+/-1.2 | average RLU of cultures exposed to Aβ1–42 ([2]; lower end over different experiments): 6067.25+/-903.05 | average RLU of cultures exposed to Aβ1–42 ([2]; upper end over different experiments): 11574.25+/- 4139.3 | IL-1β mRNA (in words) (IL-1β mRNA): upregulation of mRNA for IL-1β | caspase 3 mRNA (in words) (Caspase-3 mRNA): upregulation of mRNA for caspase 3 | caspase 9 mRNA (in words) (Caspase-9 mRNA): upregulation of mRNA for caspase 3 and caspase 9 | IL-6 mRNA (in words) (IL-6 mRNA): upregulation of mRNA for IL-1β and IL-6

oncocin
influx into CNS and distribution in brain parenchyma [3]: significant influx into CNS and distribution within the brain parenchyma
